“Also recorded” adds a separate entry of the source.
Tests used:
[1] = test system: C26-6CK tumor-infiltrating dendritic cells; assay: IL-12 p70 and TNFα ELISA in supernatants of activated C26-6CK TIDC (Example II); type: cell-based, mouse
B16F0 melanoma tumor = assay: Therapeutic effect in the B16F0 melanoma tumor model (Example VII)
Protocol: • 5×10^4 B16F0 tumor cells were implanted s.c. at Day 0 in groups of seven 8 week-old female C57BL/6 mice and treated as follow: • 5 μg of CpG 1668 were injected intra-tumorally at Day 7, 14, and 21. • 250 μg anti-IL10R purified antibody were injected intraperitoneally at Day 7, 14, and 21. Control antibody was purified GL113 antibody.
(§1) Tumor development was assessed three times a week by palpation and tumors measured using a caliper with tumor volume=I^2×L×0.4, I being the small diameter and L the large diameter. Mice were sacrificed when tumors exceeded 1500 mm^3 or for humane criteria.

C26-6CK tumor [2] = assay: Therapeutic effect of CpG 1668+indomethacin in the C26-6CK tumor model (Example X); type: in vivo, BALB/c mice; conditions: C26-6CK s.c.; 5 μg CpG 1668 intra-tumorally Day 7, 14, 21; indomethacin 5 μg/ml in drinking water day 5 to 28
C26 tumor = assay: Therapeutic effect in the C26 tumor model (Example VI); type: in vivo, BALB/c mice
Text: Control antibody was purified GL113 antibody.

[3] = test system: C26-6CK tumor-infiltrating dendritic cells; assay: Mixed leukocyte reaction with activated C26-6CK TIDC (Example III); type: cell-based, mouse; conditions: overnight activation, 5 days with allogeneic T cells
C26-6CK tumor [4] = assay: Therapeutic effect in the C26-6CK tumor model (Example V)
Protocol: • 1×10^5 C26-6CK tumor cells were implanted s.c. at Day 0 in groups of seven 8 week-old female BALB/c mice and treated as follow: • 10 μg of CpG 1668 were injected peri- (when tumor too small) or intratumorally at Day 7, 14, and 21. • 250 μg anti-IL10R purified antibody were injected intraperitoneally twice a week starting at Day 7 (stop Day 24).
as §1

Bone marrow-derived DC = assay: Activation of bone marrow-derived DC cultured with C26 tumor supernatant (Example IX); type: cell-based, mouse; conditions: 10% v/v supernatant, indomethacin 1 μg/ml during supernatant preparation, anti-IL10R 10 μg/ml
Protocol: Bone marrow-derived DCs were obtained by culture of bone marrow progenitors with GM-CSF and TNFα for 5 days in the presence or absence of 10% v/v of a supernatant from C26 tumors. To prepare tumor supernatant, 0.5 cm C26 tumors grown subcutaneously in BALB/c mice were excised and minced, then cultured for 48 hours in 10 ml DMEM. The resulting supernatant was filtered at 0.2 μm and frozen before use. This supernatant contained 0.25 ng/ml IL-10 and 50 ng/ml PGE2, as determined by specific ELISA (R&D Systems). In order to inhibit PGE2 synthesis in the supernanant, the inhibitor of cyclo-oxygenase indomethacin (Sigma) was added at 1 μg/ml during the 48 h culture.
After 5 days, bone-marrow DC were activated with different combinations of optimal doses of LPS, IFNγ and anti-CD40 antibody in the presence or absence of 10 μg/ml anti-IL10R antibody. The activation of DC was measured by their expression of the co-stimulatory molecules CD40 and CD86 by FACS as well as by the production of IL-12 as detected by intra-cellular staining.

[5] = test system: C26-6CK tumor-infiltrating dendritic cells; assay: Activation of C26-6CK tumor-infiltrating DC with LPS, IFNγ and anti-CD40, compared with bone marrow-derived DC (Example I); type: cell-based, mouse

Row | Compound | IL-12 p70 production in culture supernatants (ELISA) ([1]; C26-6CK TIDC, GM-CSF 10 ng/ml, 24 h, CpG 1668 5 μg/ml, anti-IL10R 10 μg/ml) | activating tumor-infiltrating dendritic cells ([1]; Examples II and III) | overall anti-tumor effect (B16F0 melanoma tumor) | mice that did not develop tumor (C26-6CK tumor [2]) | overall anti-tumor effect (C26 tumor) | MLR stimulatory capacity of tumor-infiltrating DC (thymidine incorporation) [3] | mice that did not develop a tumor (C26-6CK tumor [4]; C26-6CK s.c., 10 μg CpG 1668 peri- or intratumorally Day 7, 14, 21) | mean volume of tumors versus control group (C26-6CK tumor [4]; C26-6CK s.c., after three weeks) | overall anti-tumor effect (C26-6CK tumor [4]; C26-6CK tumor model) | relief of the inhibition of DC activation by C26 tumor supernatant (CD40, CD86, IL-12 expression) (Bone marrow-derived DC) | response of tumor-infiltrating DC to stimulation (co-stimulatory molecules, MLR, IL-12 and TNFα) [5]
1 | CpG 1668: TLR-9 ligand in the mouse, sequence TCC-ATG-ACG-TTC-CTG-ATG-CT (SEQ ID NO: 5), MWG Biotech (TCCATGACGTTCCTGATGCT; DNA, all phosphorothioate, methylation of C not given here) | does not induce | marginal effect | marginal effect | 1/7 | marginal effect | minimally enhanced | 1/7 | smaller than in the control group | minor effect; also recorded: marginal effect | – | –
2 | COc1ccc2c(c1)c(CC(=O)O)c(C)n2C(=O)c1ccc(Cl)cc1 [indomethacin] | – | – | – | 1/7 | – | – | – | – | – | relieved partially | –
3 | IFNγ: cytokine IFNγ (R&D Systems) | – | – | – | – | – | – | – | – | – | – | did not respond
